Experiments:
Type in all cases: functional
[1] = tested on: Rhynchophorus ferrugineus; assay: Pesticidal activity against Rhynchophorus ferrugineus (red palm weevil) cocoon assessed as mortality at 2 ppm administered by dipping for 3 min measured at 24 hr post-treatment relative to control
[2] = tested on: Rhynchophorus ferrugineus; assay: Pesticidal activity against Rhynchophorus ferrugineus (red palm weevil) larvae assessed as mortality at 4 ppm, po at 114 hr post-treatment relative to control
[3] = tested on: Rhynchophorus ferrugineus; assay: Pesticidal activity against Rhynchophorus ferrugineus (red palm weevil) larvae assessed as mortality at 1 ppm, po at 90 hr post-treatment relative to control
[4] = tested on: Rhynchophorus ferrugineus; assay: Pesticidal activity against Rhynchophorus ferrugineus (red palm weevil) larvae assessed as mortality at 1.5 ppm, po at 90 hr post-treatment relative to control
[5] = tested on: Rhynchophorus ferrugineus; assay: Pesticidal activity against Rhynchophorus ferrugineus (red palm weevil) larvae assessed as mortality at 1.5 ppm, po at 72 hr post-treatment relative to control
[6] = tested on: Rhynchophorus ferrugineus; assay: Pesticidal activity against Rhynchophorus ferrugineus (red palm weevil) larvae assessed as mortality at 2 ppm, po at 72 hr post-treatment relative to control
[7] = tested on: Rhynchophorus ferrugineus; assay: Pesticidal activity against Rhynchophorus ferrugineus (red palm weevil) larvae assessed as mortality at 4 ppm, po at 72 hr post-treatment relative to control
[8] = tested on: Rhynchophorus ferrugineus; assay: Pesticidal activity against Rhynchophorus ferrugineus (red palm weevil) larvae infested date palm tree assessed as mortality of collected live stage at 20 ml/4l of water applied through soil-drench irrigation measured at 3 weeks post-treatment within 48 hr after emergence relative to control
[9] = tested on: Rhynchophorus ferrugineus; assay: Pesticidal activity against Rhynchophorus ferrugineus (red palm weevil) larvae infested date palm tree assessed as mortality at 20 ml/4l of water applied through soil-drench irrigation measured after 3 weeks relative to control
[10] = tested on: Rhynchophorus ferrugineus; assay: Pesticidal activity against adult Rhynchophorus ferrugineus (red palm weevil) assessed as mortality at 100 ppm administered topically at 18 hr post-treatment
[11] = tested on: Rhynchophorus ferrugineus; assay: Pesticidal activity against Rhynchophorus ferrugineus (red palm weevil) cocoon assessed as mortality at 20 ppm administered by dipping for 3 min measured at 114 hr post-treatment relative to control
[12] = tested on: Rhynchophorus ferrugineus; assay: Pesticidal activity against Rhynchophorus ferrugineus (red palm weevil) cocoon assessed as mortality at 0.5 ppm administered by dipping for 3 min measured at 90 hr post-treatment relative to control
[13] = tested on: Rhynchophorus ferrugineus; assay: Pesticidal activity against Rhynchophorus ferrugineus (red palm weevil) cocoon assessed as mortality at 2 ppm administered by dipping for 3 min measured at 90 hr post-treatment relative to control
[14] = tested on: Rhynchophorus ferrugineus; assay: Contact toxicity against Rhynchophorus ferrugineus (red palm weevil) adults assessed as time required for 100% mortality at 3.5 ml/l for 5 min
[15] = tested on: Rhynchophorus ferrugineus; assay: Contact toxicity against Rhynchophorus ferrugineus (red palm weevil) adults assessed as time required for 100% mortality at 1.5 ml/l for 5 min
[16] = tested on: Rhynchophorus ferrugineus; assay: Contact toxicity against Rhynchophorus ferrugineus (red palm weevil) adults assessed as time required for 100% reversible knockdown at 3.5 ml/l for 5 min
[17] = tested on: Rhynchophorus ferrugineus; assay: Contact toxicity against Rhynchophorus ferrugineus (red palm weevil) adults assessed as time required for 100% reversible knockdown at 2.5 ml/l for 5 min
[18] = tested on: Rhynchophorus ferrugineus; assay: Contact toxicity against Rhynchophorus ferrugineus (red palm weevil) adults assessed as time required for 50% mortality at 2.5 ml/l for 2 min
[19] = tested on: Rhynchophorus ferrugineus; assay: Pesticidal activity against Rhynchophorus ferrugineus (red palm weevil) cocoon assessed as mortality at 1.5 ppm administered by dipping for 3 min measured at 72 hr post-treatment relative to control
[20] = tested on: Rhynchophorus ferrugineus; assay: Pesticidal activity against Rhynchophorus ferrugineus (red palm weevil) cocoon assessed as mortality at 1 ppm administered by dipping for 3 min measured at 48 hr post-treatment relative to control
[21] = tested on: Rhynchophorus ferrugineus; assay: Pesticidal activity against adult Rhynchophorus ferrugineus (red palm weevil) assessed as mortality at 2 ppm, po at 90 hr post-treatment relative to control
[22] = tested on: Rhynchophorus ferrugineus; assay: Pesticidal activity against adult Rhynchophorus ferrugineus (red palm weevil) assessed as mortality at 0.5 ppm, po at 18 hr post-treatment relative to control
[23] = tested on: Rhynchophorus ferrugineus; assay: Pesticidal activity against adult Rhynchophorus ferrugineus (red palm weevil) assessed as mortality at 1 ppm, po at 18 hr post-treatment relative to control
[24] = tested on: Rhynchophorus ferrugineus; assay: Pesticidal activity against adult Rhynchophorus ferrugineus (red palm weevil) assessed as mortality at 2 ppm, po at 18 hr post-treatment relative to control
[25] = tested on: Rhynchophorus ferrugineus; assay: Pesticidal activity against Rhynchophorus ferrugineus (red palm weevil) larvae assessed as mortality at 300 ppm administered topically at 72 hr post-treatment
[26] = tested on: Rhynchophorus ferrugineus; assay: Pesticidal activity against Rhynchophorus ferrugineus (red palm weevil) larvae assessed as mortality at 1.5 ppm, po at 18 hr post-treatment relative to control
[27] = tested on: Rhynchophorus ferrugineus; assay: Pesticidal activity against adult Rhynchophorus ferrugineus (red palm weevil) assessed as mortality at 0.5 ppm, po at 114 hr post-treatment relative to control
[28] = tested on: Rhynchophorus ferrugineus; assay: Pesticidal activity against Rhynchophorus ferrugineus (red palm weevil) larvae assessed as mortality at 500 ppm administered topically at 48 hr post-treatment
[29] = tested on: Rhynchophorus ferrugineus; assay: Pesticidal activity against adult Rhynchophorus ferrugineus (red palm weevil) assessed as mortality at 500 ppm administered topically at 18 hr post-treatment
[30] = tested on: Rhynchophorus ferrugineus; assay: Pesticidal activity Rhynchophorus ferrugineus (red palm weevil) larvae assessed as time required after hatching for 100% mortality at 3.5 ml/l administered topically measured up to 14 days relative to control
[31] = tested on: Rhynchophorus ferrugineus; assay: Pesticidal activity Rhynchophorus ferrugineus (red palm weevil) larvae assessed as time required after hatching for 100% mortality at 2.5 ml/l administered topically measured up to 14 days relative to control
[32] = tested on: Rhynchophorus ferrugineus; assay: Pesticidal activity against Rhynchophorus ferrugineus (red palm weevil) cocoons assessed as time required for total mortality at 3.5 ml/l administered by dipping for 30 secs
[33] = tested on: Rhynchophorus ferrugineus; assay: Pesticidal activity against Rhynchophorus ferrugineus (red palm weevil) cocoons assessed as time required for total mortality at 1.5 ml/l administered by dipping for 30 secs
[34] = tested on: Rhynchophorus ferrugineus; assay: Pesticidal activity against Rhynchophorus ferrugineus (red palm weevil) cocoons assessed as time required for total mortality at 1.5 ml/l administered by dipping for 5 secs
[35] = tested on: Rhynchophorus ferrugineus; assay: Pesticidal activity against adult Rhynchophorus ferrugineus (red palm weevil) assessed as mortality at 500 ppm administered topically at 72 hr post-treatment
[36] = tested on: Rhynchophorus ferrugineus; assay: Pesticidal activity against adult Rhynchophorus ferrugineus (red palm weevil) assessed as mortality at 100 ppm administered topically at 48 hr post-treatment
[37] = tested on: Rhynchophorus ferrugineus; assay: Pesticidal activity against adult Rhynchophorus ferrugineus (red palm weevil) assessed as mortality at 300 ppm administered topically at 48 hr post-treatment
[38] = tested on: Rhynchophorus ferrugineus; assay: Pesticidal activity against adult Rhynchophorus ferrugineus (red palm weevil) assessed as mortality at 100 ppm administered topically at 36 hr post-treatment
[39] = tested on: Rhynchophorus ferrugineus; assay: Pesticidal activity against Rhynchophorus ferrugineus (red palm weevil) larvae assessed as mortality at 100 ppm administered topically at 18 hr post-treatment
[40] = tested on: Rhynchophorus ferrugineus; assay: Pesticidal activity against adult Rhynchophorus ferrugineus (red palm weevil) assessed as time required for 100% mortality at 2.5 ml/l administered topically
[41] = tested on: Rhynchophorus ferrugineus; assay: Pesticidal activity against adult Rhynchophorus ferrugineus (red palm weevil) assessed as time required for reversible knockdown at 1.5 ml/l administered topically

Compound `O=[N+]([O-])/N=C1\NCCN1Cc1ccc(Cl)nc1` [IMIDACLOPRID] has an Activity [1] of 0%, an Activity [2] of 100% and an Activity [3] of 100%. The Activity [4] was 100%, the Activity [5] was 100% and the Activity [6] was 100%. It also gave an Activity [7] of 100%, an Activity [8] of 100% and an Activity [9] of 61.9%. It also gave an Activity [10] of 0%, an Activity [11] of 100% and an Activity [12] of 38.9%. It also gave an Activity [13] of 72.2%, a Time [14] of 4.2 days and a Time [15] of 8.1 days. The Time [16] was 2.1 days, the Time [17] was 2.2 days and the Time [18] was 10.1 days. The Activity [19] was 0%, the Activity [20] was 0% and the Activity [21] was 100%. It also gave an Activity [22] of 0%, an Activity [23] of 38.9% and an Activity [24] of 100%. It also gave an Activity [25] of 38.9%, an Activity [26] of 72.2% and an Activity [27] of 72.2%. The Activity [28] was 72.2%, the Activity [29] was 66.7% and the Time [30] was 4 days. It also gave a Time [31] of 6 days, a Time [32] of 3.2 days and a Time [33] of 9.6 days. For the same compound, the Time [34] was 14.5 days, the Activity [35] was 72.2% and the Activity [36] was 72.2%. The Activity [37] was 72.2%, the Activity [38] was 38.9% and the Activity [39] was 0%. For the same compound, the Time [40] was 8.8 days and the Time [41] was 4 days.

From ChEMBL document CHEMBL3046274, “Toxicity of imidacloprid to developmental stages of Rhynchophorus ferrugineus (Curculionidae: Coleoptera): Laboratory and field tests” (Crop Prot, 2006)
